ChEMBL document CHEMBL1132362, “Synthesis of 5-(carboranylalkylmercapto)-2'-deoxyuridines and 3-(carboranylalkyl)thymidines and their evaluation as substrates for human thymidine kinases 1 and 2” (J Med Chem, 1999)

Test system: Thymidine Kinase (TK1)
Assay: Kinetic constant Km for Thymidine Kinase (TK1)
Assay type: ADME

`Cc1cn([C@H]2C[C@H](O)[C@@H](CO)O2)c(=O)[nH]c1=O` [DOXRIBTIMINE] showed a Km of 1 µM.
